This passage reports melting point, inhibition and IC50 results from patent US20030050306A1, “Novel heteroaryl derivatives, their preparation and use” (H. Lundbeck A/S, priority 1999, published 2003).

For data set [1], the target named is T1, cloned human 5-HT1A receptors (Homo sapiens, UniProt P08908).
T1 construct: expressed in transfected cells; host or cells: HeLa cells (HA7)
T1 sequence (P08908 1-422): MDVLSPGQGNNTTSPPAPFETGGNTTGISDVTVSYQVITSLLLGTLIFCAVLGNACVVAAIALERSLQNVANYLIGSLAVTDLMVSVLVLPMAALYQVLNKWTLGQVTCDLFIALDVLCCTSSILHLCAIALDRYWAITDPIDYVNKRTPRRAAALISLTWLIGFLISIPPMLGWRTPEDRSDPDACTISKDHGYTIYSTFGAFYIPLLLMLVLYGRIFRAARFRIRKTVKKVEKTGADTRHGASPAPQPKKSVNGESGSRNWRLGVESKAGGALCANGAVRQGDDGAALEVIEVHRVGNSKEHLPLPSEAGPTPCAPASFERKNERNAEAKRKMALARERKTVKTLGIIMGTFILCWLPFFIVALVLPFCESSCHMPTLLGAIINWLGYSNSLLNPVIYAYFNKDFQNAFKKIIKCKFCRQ
In words: Inhibition of 3H-5-CT binding to human 5-HT1A receptors. Conditions: cloned human 5-HT1A receptors in HeLa cells (HA7); for inhibition at 0.1 µM: at 100 nM. The method in brief:
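Cloned human 5-HT1A receptors stably expressed in transfected HeLa cells (HA7); 40 μg cell homogenate incubated 15 min at 37° C in 50 mM Tris pH 7.7 with 3H-5-CT. Non-specific binding defined with 10 μM metergoline; bound radioligand separated by rapid GF/B filtration and counted.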

In data set [2] the target is T2, human cloned dopamine D4.2 receptors (Homo sapiens, UniProt P21917, DEL265-296).
T2 construct: expressed in transfected cells; host or cells: CHO cells
T2 sequence (P21917 with tags, fused parts or gaps DEL265-296): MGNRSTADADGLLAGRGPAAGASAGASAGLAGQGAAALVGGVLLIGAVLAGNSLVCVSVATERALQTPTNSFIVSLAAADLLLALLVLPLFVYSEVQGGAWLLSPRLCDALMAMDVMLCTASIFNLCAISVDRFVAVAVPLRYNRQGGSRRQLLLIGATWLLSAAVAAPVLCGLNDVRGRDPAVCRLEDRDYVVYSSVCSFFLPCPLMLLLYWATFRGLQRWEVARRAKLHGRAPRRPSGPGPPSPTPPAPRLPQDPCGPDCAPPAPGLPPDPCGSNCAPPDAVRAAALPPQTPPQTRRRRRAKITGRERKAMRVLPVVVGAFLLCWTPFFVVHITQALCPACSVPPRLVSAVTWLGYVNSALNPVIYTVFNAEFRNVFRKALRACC
In words: Inhibition of the binding of 3H-YM-09151-2 to human dopamine D4 receptors. As to conditions: human cloned dopamine D4.2 receptors in CHO-cells; for inhibition at 0.05 µM: at 50 nM. The method in brief:
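Radioligand displacement of [3H]YM-09151-2 (0.06 nM) from membranes of CHO cells expressing cloned human D4.2 receptors, measured in vitro.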

Counter-ions that a name gives are not always drawn.

Consider `Clc1cccc(Cl)c1SCCN1CCN(c2cccc3c2OCCO3)CC1` (as salt: oxalate) [Compound 3d, 1-[2-(2,6-Dichloro-phenylsulfanyl)-ethyl]-4-(2,3-dihydro-benzo[1,4]dioxin-5-yl)-piperazine], for which the melting point – broadly, the temperature, or range, at which the solid turns liquid – was 188 to 191 °C (dec.). The same measure, in the same setting: to `Fc1cc(F)c(OCCCN2CCN(c3cccc4c3OCCO4)CC2)c(F)c1` (as salt: hydrochloride) [Compound 1c, 1-(2,3-Dihydro-benzo[1,4]dioxin-5-yl)-4-[3-(2,4,6-trifluoro-phenoxy)-propyl]-piperazine] belongs 210 to 220 °C; to `Fc1ccc(SCCN2CCN(c3cccc4c3OCCO4)CC2)cc1` (as salt: oxalate) [Compound 3b, 1-(2,3-Dihydro-benzo[1,4]dioxin-5-yl)-4-[2-(4-fluoro-phenylsulfanyl)-ethyl]-piperazine], 200 to 202 °C. Same read-out and setting: to `Fc1ccccc1OCCCN1CCN(c2cccc3c2OCCO3)CC1` (as salt: oxalate) [Compound 2c, 1-(2,3-Dihydro-benzo[1,4]dioxin-5-yl)-4-[3-(2-fluoro-phenoxy)-propyl]-piperazine] belongs 167 to 169 °C; to `N#Cc1ccc(N2CCN(CCCOc3ccc(F)cc3Br)CC2)c2c1OCCO2` (as salt: oxalate) [Compound 6b, 8-{4-[3-(2-Bromo-4-fluoro-phenoxy)-propyl]-piperazin-1-yl}-2,3-dihydro-benzo[1,4]dioxine-5-carbonitrile], 152 to 154 °C; to `COc1cc(F)ccc1OCCCN1CCN(c2cccc3c2OCCO3)CC1` (as salt: oxalate) [Compound 1d, 1-(2,3-Dihydro-benzo[1,4]dioxin-5-yl)-4-[3-(4-fluoro-2-methoxy-phenoxy)-propyl]-piperazine], 141 to 142 °C. Compound `Fc1ccc(SCCCN2CCN(c3cccc4ccsc34)CC2)c(Cl)c1` (as salt: hydrochloride) [Compound 2e, 1-Benzo[b]thiophen-7-yl-4-[3-(2-chloro-4-fluoro-phenylsulfanyl)-propyl]-piperazine] displayed a melting point of 216 to 219 °C. In the case of `Fc1ccc(OCCCCN2CCN(c3cccc4ccsc34)CC2)c(Cl)c1` (as salt: hydrochloride) [Compound 2f, 1-Benzo[b]thiophen-7-yl-4-[4-(2-chloro-4-fluoro-phenoxy)-butyl]-piperazine], the melting point lay in the range of 193 to 195 °C. Still for that read-out and setting: to `Cc1cc(F)ccc1OCCCN1CCN(c2cccc3c2OCCO3)CC1` (as salt: oxalate) [Compound 1e, 1-(2,3-Dihydro-benzo[1,4]dioxin-5-yl)-4-[3-(4-fluoro-2-methyl-phenoxy)-propyl]-piperazine] belongs 139 to 150 °C. As to `FC(F)(F)c1ccc(OCCCN2CCN(c3cccc4c3OCCO4)CC2)cc1` (as salt: oxalate) [Compound 2b, 1-(2,3-Dihydro-benzo[1,4]dioxin-5-yl)-4-[3-(4-trifluoromethyl-phenoxy)-propyl]-piperazine], the melting point is 148 to 150 °C. `N#Cc1ccc(N2CCN(CCCOc3ccccc3Cl)CC2)c2c1OCCO2` (as salt: oxalate) [Compound 6c, 8-{4-[3-(2-Chloro-phenoxy)-propyl]-piperazin-1-yl}-2,3-dihydro-benzo[1,4]dioxine-5-carbonitrile] showed a melting point of 96 to 98 °C. For `Clc1ccc(Cl)c(SCCCCN2CCN(c3cccc4c3OCCO4)CC2)c1` [Compound 7bd, 1-[4-(2,5-Dichloro-phenylsulfanyl)-butyl]-4-(2,3-dihydro-benzo[1,4]dioxin-5-yl)-piperazine], the inhibition – broadly, the change of the read-out against control, counted positive when it falls – at 0.1 µM in data set [1] is 84%. The inhibition at 0.05 µM in data set [2] is 102%. Turning to `Clc1ccc(Cl)c(SCCCN2CCN(c3cccc4c3OCCO4)CC2)c1` [Compound 7ay, 1-[3-(2,5-Dichloro-phenylsulfanyl)-propyl]-4-(2,3-dihydro-benzo[1,4]dioxin-5-yl)-piperazine], in data set [1], the IC50 – broadly, the point on the concentration scale where inhibition reaches its midpoint – is 2 nM. In addition, the inhibition at 0.05 µM in data set [2] came out at 102%. Take `Fc1ccc(SCCCCN2CCN(c3cccc4c3OCCO4)CC2)c(Cl)c1` [Compound 7bi, 1-[4-(2-Chloro-4-fluoro-phenylsulfanyl)-butyl]-4-(2,3-dihydrobenzo[1,4]dioxin-5-yl)-piperazine]: the inhibition at 0.1 µM in data set [1] worked out at 96%. The inhibition at 0.05 µM in data set [2] came to 101%. For `Cc1cccc(C)c1OCCN1CCN(c2cccc3c2OCCO3)CC1` [Compound 7ab, 1-(2,3-Dihydro-benzo[1,4]dioxin-5-yl)-4-[2-(2,6-dimethyl-phenoxy)-ethyl]-piperazine], in that order: 86% and 91%. For `CCc1ccccc1OCCN1CCN(c2cccc3c2OCCO3)CC1` [Compound 7ag, 1-(2,3-Dihydro-benzo[1,4]dioxin-5-yl)-4-[2-(2-ethyl-phenoxy)-ethyl]-piperazine], in that order: 79% and 88%.

As to `c1ccc(SCCN2CCN(c3cccc4c3OCCO4)CC2)cc1` [Compound 7aa, 1-(2,3-Dihydro-benzo[1,4]dioxin-5-yl)-4-(2-phenylsulfanyl-ethyl)-piperazine], the inhibition at 0.1 µM in data set [1] came out at 78%. In addition, in data set [2], the inhibition at 0.05 µM was determined as 84%.

Consider `Clc1cccc(SCCN2CCN(c3cccc4c3OCCO4)CC2)c1Cl` [Compound 7ah, 1-[2-(2,3-Dichloro-phenylsulfanyl)-ethyl]-4-(2,3-dihydro-benzo[1,4]dioxin-5-yl)-piperazine], for which the IC50 in data set [1] came to 1.6 nM. The inhibition at 0.05 µM in data set [2] was 87%. In the case of `Brc1cc(Br)c(OCCCN2CCN(c3cccc4c3OCCO4)CC2)c(Br)c1` [Compound 5bq, 1-(2,3-Dihydro-benzof[1,4]dioxin-5-yl)-4-[3-(2,4,6-tribromo-phenoxy)-propyl]-piperazine], the IC50 in data set [1] turned out to be 1.2 nM; in data set [2], 2.4 nM. The corresponding values for `Clc1ccc(OCCCN2CCN(c3cccc4c3OCCO4)CC2)cc1` [Compound 2a, 1-[3-(4-Chloro-phenoxy)-propyl]-4-(2,3-dihydro-benzo[1,4]dioxin-5-yl)-piperazine] are 4.4 nM and 4 nM. For `COc1cc(F)ccc1OCCCN1CCN(c2cccc3c2OCCO3)CC1` [Compound 1d, 1-(2,3-Dihydro-benzo[1,4]dioxin-5-yl)-4-[3-(4-fluoro-2-methoxy-phenoxy)-propyl]-piperazine], in that order: 5.3 nM and 3 nM.

Turning to `Clc1cccc(Cl)c1OCCCN1CCN(c2cccc3c2OCCO3)CC1` (as salt: oxalate) [Compound 1b, 1-[3-(2,6-Dichloro-phenoxy)-propyl]-4-(2,3-dihydro-benzo[1,4]dioxin-5-yl)-piperazine], the melting point lay in the range of 179 to 181 °C.

`Fc1ccc(SCCCN2CCN(c3cccc4c3OCCO4)CC2)c(Cl)c1` [Compound 5ac, 1-[3-(2-Chloro-4-fluoro-phenylsulfanyl)-propyl]-4-(2,3-dihydro-benzo[1,4]dioxin-5-yl)-piperazine]: the IC50 was 2.4 nM in data set [1] and 1.4 nM in data set [2]. On to `Fc1cc(Br)cc(F)c1OCCCN1CCN(c2cccc3ccsc23)CC1` [Compound 5cj, 1-Benzo[b]thiophen-7-yl-4-[3-(4-bromo-2,6-difluoro-phenoxy)-propyl]-piperazine], for which the inhibition at 0.1 µM in data set [1] is 93%. Moreover, the IC50 in data set [2] came to 59 nM.

As to `COc1ccc(OC)c(SCCCN2CCN(c3cccc4c3OCCO4)CC2)c1` [Compound 7bk, 1-(2,3-Dihydro-benzo[1,4]dioxin-5-yl)-4-[3-(2,5-dimethoxy-phenylsulfanyl)-propyl]-piperazine], in data set [1], the inhibition at 0.1 µM is 91%. Further, the inhibition at 0.05 µM in data set [2] worked out at 84%.

As for “1-[3-(Bromo-trifluoromethyl-phenylsulfanyl)-propyl]-4-(2,3-dihydro-benzo[1,4]dioxin-5-yl)-piperazine [Compound 5ap]”, the figures for the IC50 in data set [1] and in data set [2] were 6.2 nM and 6.3 nM, respectively.
